{"source": "paper doi:10.1101/2024.05.26.595989v1", "about": "(biorxiv, 2024)", "key": {"[1]": {"target": "T1, PDI (PDIA1), purified / recombinant wild-type human PDI (Homo sapiens, UniProt P07237)", "T1 sequence (P07237 18-508)": "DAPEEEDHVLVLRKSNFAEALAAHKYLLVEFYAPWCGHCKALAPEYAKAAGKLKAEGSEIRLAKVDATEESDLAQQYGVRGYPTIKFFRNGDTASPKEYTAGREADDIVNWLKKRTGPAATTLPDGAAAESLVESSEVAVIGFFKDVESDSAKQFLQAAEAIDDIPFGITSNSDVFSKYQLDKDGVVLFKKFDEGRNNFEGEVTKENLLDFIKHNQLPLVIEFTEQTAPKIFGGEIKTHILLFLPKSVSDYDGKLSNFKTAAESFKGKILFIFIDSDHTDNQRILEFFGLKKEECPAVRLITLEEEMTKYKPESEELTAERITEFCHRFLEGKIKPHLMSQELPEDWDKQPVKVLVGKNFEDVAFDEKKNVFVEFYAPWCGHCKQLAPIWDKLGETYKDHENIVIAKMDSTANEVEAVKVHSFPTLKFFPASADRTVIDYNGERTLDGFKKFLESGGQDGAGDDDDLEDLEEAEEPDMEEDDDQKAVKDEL", "assay": "biochemical"}, "[2]": {"target": "T1, PDI (PDIA1), purified / recombinant wild-type human PDI", "assay": "biochemical", "remark": "listed apart in the source"}}, "note": "Like-named read-outs stand apart in the source and are kept apart here.", "data": [{"compound": "C[C@]12CC[C@@H]3c4cc(O)c(O)cc4CC[C@H]3[C@@H]1CCC2=O", "note": "[2-OH-E1, 1,3,5([10])-Estratrien-2,3-diol-17-one]", "values": [{"measurement": "Kd", "setting": "[1]", "result": 24.2, "unit": "nM"}]}, {"compound": "C[C@]12CC[C@@H]3c4cc(O)c(O)cc4CC[C@H]3[C@@H]1CC[C@@H]2O", "note": "[2-OH-E2, 1,3,5([10])-estratrien-2,3,17β-triol]", "values": [{"measurement": "Kd", "setting": "[2]", "result": "61.3 to 68.3", "unit": "nM"}]}]}
